How the values were obtained:
[1] = tested on: CD40 signaling pathway; conditions: as described in US20170333556A1; cited from earlier work
[2] = tested on: FcγIII receptors; conditions: as described in US20170333556A1; cited from earlier work
[3] = biological target: murine CD40 (Mus musculus, UniProt P27512); assay: Recognition of murine CD40; format: binding
[4] = tested on: cytokines (IFN-γ, IL-10); assay: Cytokine production after administration to a patient; format: in vivo; conditions: when administered to a patient

Chain of murine CD40 (P27512 20-289): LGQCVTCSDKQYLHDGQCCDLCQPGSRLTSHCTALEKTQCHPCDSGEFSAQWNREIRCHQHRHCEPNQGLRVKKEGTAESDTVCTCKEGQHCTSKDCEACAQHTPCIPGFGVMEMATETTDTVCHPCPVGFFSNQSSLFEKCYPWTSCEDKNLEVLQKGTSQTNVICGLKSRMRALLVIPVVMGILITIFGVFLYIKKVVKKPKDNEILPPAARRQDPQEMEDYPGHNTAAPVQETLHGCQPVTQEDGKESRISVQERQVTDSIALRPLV

SEA-CD40: non-fucosylated humanized IgG1 anti-CD40 monoclonal antibody; heavy and light chains SEQ ID NOs: 1 and 2
ability to activate the CD40 signaling pathway in immune cells [1]: enhanced ability
binding to FcγIII receptors [2]: enhanced binding
recognition of murine CD40 [3]: does not recognize murine CD40
production of cytokines, including interferon-γ (IFN-γ) [4]: induce production of cytokines
production of immune-dampening cytokines, such as interleukin-10 (IL-10) [4]: does not induce production
